Data from ChEMBL document CHEMBL1129930, “Analogues of methotrexate in rheumatoid arthritis. 2. Effects of 5-deazaaminopterin, 5,10-dideazaaminopterin, and analogues on type II collagen-induced arthritis in mice” (J Med Chem, 1997).

Experiments:
[1] = system: Mus musculus; assay: Tested for antiinflammatory activity on mouse type II collagen arthritis as Paw swelling of all animals in each group on day 37 at intraperitoneal dose of 6 mg/kg; format: functional
[2] = system: Mus musculus; assay: Incidence of disease (mouse type II collagen) was scored as the percentage of animals within each experimental group that exhibited joint or limb inflammation on day 30 at intraperitoneal dose of 6 mg/kg; format: functional
[3] = system: Mus musculus; assay: Incidence of disease (mouse type II collagen) was scored as the percentage of animals within each experimental group that exhibited joint or limb inflammation on day 44 at intraperitoneal dose of 6 mg/kg; format: functional
[4] = system: Mus musculus; assay: Tested for antiinflammatory activity on mouse type II collagen arthritis as Paw swelling of all animals in each group on day 30 at intraperitoneal dose of 6 mg/kg; format: functional
[5] = system: Mus musculus; assay: Incidence of disease (mouse type II collagen) was scored as the percentage of animals within each experimental group that exhibited joint or limb inflammation on day 37 at intraperitoneal dose of 6 mg/kg; format: functional
[6] = system: Mus musculus; assay: Incidence of disease (mouse type II collagen) was scored as the percentage of animals within each experimental group that exhibited joint or limb inflammation on day 44 at intraperitoneal dose of 1.5 mg/kg; format: functional
[7] = system: Mus musculus; assay: Tested for antiinflammatory activity on mouse type II collagen arthritis as Paw swelling of all animals in each group on day 44 at intraperitoneal dose of 3 mg/kg; format: functional
[8] = system: Mus musculus; assay: Incidence of disease (mouse type II collagen) was scored as the percentage of animals within each experimental group that exhibited joint or limb inflammation on day 23 at intraperitoneal dose of 3 mg/kg; format: functional
[9] = system: Mus musculus; assay: Tested for antiinflammatory activity on mouse type II collagen arthritis as Paw swelling of all animals in each group on day 37 at intraperitoneal dose of 3 mg/kg; format: functional
[10] = system: Mus musculus; assay: Tested for antiinflammatory activity on mouse type II collagen arthritis as Paw swelling of all animals in each group on day 44 at intraperitoneal dose of 1.5 mg/kg; format: functional
[11] = system: Mus musculus; assay: Tested for antiinflammatory activity on mouse type II collagen arthritis as Paw swelling of all animals in each group on day 37 at intraperitoneal dose of 1.5 mg/kg; format: functional
[12] = system: Mus musculus; assay: Incidence of disease (mouse type II collagen) was scored as the percentage of animals within each experimental group that exhibited joint or limb inflammation on day 44 at intraperitoneal dose of 3 mg/kg; format: functional
[13] = system: Mus musculus; assay: Incidence of disease (mouse type II collagen) was scored as the percentage of animals within each experimental group that exhibited joint or limb inflammation on day 37 at intraperitoneal dose of 3 mg/kg; format: functional
[14] = system: Mus musculus; assay: Tested for antiinflammatory activity on mouse type II collagen arthritis as Paw swelling of all animals in each group on day 30 at intraperitoneal dose of 3 mg/kg; format: functional
[15] = system: Mus musculus; assay: Incidence of disease (mouse type II collagen) was scored as the percentage of animals within each experimental group that exhibited joint or limb inflammation on day 30 at intraperitoneal dose of 1.5 mg/kg; format: functional
[16] = system: Mus musculus; assay: Incidence of disease (mouse type II collagen) was scored as the percentage of animals within each experimental group that exhibited joint or limb inflammation on day 37 at intraperitoneal dose of 1.5 mg/kg; format: functional
[17] = system: Mus musculus; assay: Tested for antiinflammatory activity on mouse type II collagen arthritis as Paw swelling of all animals in each group on day 23 at intraperitoneal dose of 1.5 mg/kg; format: functional
[18] = system: Mus musculus; assay: Tested for antiinflammatory activity on mouse type II collagen arthritis as Paw swelling of all animals in each group on day 23 at intraperitoneal dose of 3 mg/kg; format: functional
[19] = system: Mus musculus; assay: Incidence of disease (mouse type II collagen) was scored as the percentage of animals within each experimental group that exhibited joint or limb inflammation on day 23 at intraperitoneal dose of 1.5 mg/kg; format: functional
[20] = system: Mus musculus; assay: Tested for antiinflammatory activity on mouse type II collagen arthritis as Paw swelling of all animals in each group on day 23 at intraperitoneal dose of 6 mg/kg; format: functional
[21] = system: Mus musculus; assay: Incidence of disease (mouse type II collagen) was scored as the percentage of animals within each experimental group that exhibited joint or limb inflammation on day 30 at intraperitoneal dose of 3 mg/kg; format: functional
[22] = system: Mus musculus; assay: Incidence of disease (mouse type II collagen) was scored as the percentage of animals within each experimental group that exhibited joint or limb inflammation on day 23 at intraperitoneal dose of 6 mg/kg; format: functional
[23] = Concentration required to inhibit the growth of chang liver cells.; format: functional; conditions: Homo sapiens
[24] = system: L1210; assay: Concentration required to inhibit the growth of L1210 cells.; format: functional, cell-based; conditions: Mus musculus
[25] = system: Mus musculus; assay: Tested for antiinflammatory activity on mouse type II collagen arthritis as Paw swelling of all animals in each group on day 44 at intraperitoneal dose of 6 mg/kg; format: functional
[26] = system: Mus musculus; assay: Tested for antiinflammatory activity on mouse type II collagen arthritis as Paw swelling of all animals in each group on day 30 at intraperitoneal dose of 1.5 mg/kg; format: functional

Structure (SMILES): Cc1c(CN(C)c2ccc(C(=O)NC(CCC(=O)O)C(=O)O)s2)cnc2nc(N)nc(N)c12 (stereo unspecified)
- Paw swelling [1]: 2.19 mm
- Animals [2]: 0%
- Animals [3]: 38%
- Paw swelling [4]: 2.13 mm
- Animals [5]: 12%
- Animals [6]: 50%
- Paw swelling [7]: 2.32 mm
- Animals [8]: 0%
- Paw swelling [9]: 2.14 mm
- Paw swelling [10]: 2.33 mm
- Paw swelling [11]: 2.21 mm
- Animals [12]: 57%
- Animals [13]: 0%
- Paw swelling [14]: 2.16 mm
- Animals [15]: 0%
- Animals [16]: 12%
- Paw swelling [17]: 2.12 mm
- Paw swelling [18]: 2.13 mm
- Animals [19]: 0%
- Paw swelling [20]: 2.11 mm
- Animals [21]: 0%
- Animals [22]: 0%

Structure (SMILES): Cc1c(CNc2ccc(C(=O)NC(CCC(=O)O)C(=O)O)cc2)cnc2nc(N)nc(N)c12 (stereo unspecified)
- IC50 [23]: 123 nM
- Paw swelling [1]: 2.34 mm
- Animals [2]: 0%
- Animals [3]: 100%
- Paw swelling [4]: 2.16 mm
- Animals [5]: 100%
- Animals [6]: 75%
- Paw swelling [7]: 2.53 mm
- Animals [8]: 12%
- Paw swelling [9]: 2.42 mm
- Paw swelling [10]: 2.55 mm
- IC50 [24]: 1.8 nM
- Paw swelling [11]: 2.31 mm
- Animals [12]: 60%
- Animals [13]: 40%
- Paw swelling [14]: 2.18 mm
- Animals [15]: 0%
- Animals [16]: 25%
- Paw swelling [17]: 2.13 mm
- Paw swelling [25]: 2.59 mm
- Paw swelling [18]: 2.21 mm
- Animals [19]: 0%
- Paw swelling [20]: 2.12 mm
- Animals [21]: 0%
- Animals [22]: 0%

Structure (SMILES): CCCCc1c(CNc2ccc(C(=O)NC(CCC(=O)O)C(=O)O)cc2)cnc2nc(N)nc(N)c12 (stereo unspecified)
- Paw swelling [1]: 2.27 mm
- Animals [2]: 0%
- Animals [3]: 50%
- Paw swelling [4]: 2.15 mm
- Animals [5]: 50%
- Animals [6]: 38%
- Paw swelling [7]: 2.27 mm
- Animals [8]: 0%
- Paw swelling [9]: 2.2 mm
- Paw swelling [10]: 2.27 mm
- Paw swelling [11]: 2.23 mm
- Animals [12]: 38%
- Animals [13]: 12%
- Paw swelling [14]: 2.15 mm
- Animals [15]: 0%
- Animals [16]: 38%
- Paw swelling [17]: 2.16 mm
- Paw swelling [25]: 2.29 mm
- Paw swelling [26]: 2.17 mm
- Paw swelling [18]: 2.16 mm
- Animals [19]: 0%
- Paw swelling [20]: 2.12 mm
- Animals [21]: 0%
- Animals [22]: 0%
